Common to all, as to experiment: DTP human tumour cell line panel, 48 h
In assay [1] the test system is HL-60(TB) leukemia.
Assay [2] has as its system MCF7 breast.
The subject of assay [3] is OVCAR-3 ovarian.
Assay [4] concerns OVCAR-5 ovarian.
For assay [5], the system named is OVCAR-8 ovarian.
Assay [6] has as its system PC-3 prostate.
The subject of assay [7] is SF-295 CNS.
Assay [8] concerns SNB-75 CNS.
Assay [9] deals with TK-10 renal.
Assay [10] has as its system UO-31 renal.

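48-hour exposure; five concentrations; linearly interpolated endpoints. GI50 is the concentration that inhibits growth by half. The concentration for full growth arrest is given as TGI.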

On to `Nc1nc2c(c3cnccc13)C(c1ccc(Cl)c(Cl)c1)Cc1cnccc1-2` (centres undefined), for which the concentration for 50% growth inhibition (GI50) (as a rule, the concentration giving 50% growth inhibition) in assay [1] is 0.384 µM; in assay [2] it was 0.305 µM; in assay [3] it was 0.382 µM; in assay [4] it was 2.52 µM; in assay [5], 2.69 µM; in [6], 0.544 µM. Further, the GI50 was 0.394 µM in assay [7], 0.368 µM in [8], 1.18 µM in [9] and 1.54 µM in assay [10]. Besides, the TGI (usually the concentration giving total growth inhibition) turned out to be 2.34 µM in assay [1]; 11.7 µM in [2]; 5.86 µM in [3]; 17 µM in assay [4]; 15 µM in assay [5]; 12.8 µM in assay [6]. Also, the concentration for total growth inhibition (TGI) in assay [7] was 4.76 µM; in [8], 12.1 µM; in assay [9], 9.48 µM; in assay [10], 6.72 µM.

Take `CNCc1cccc2c1OCCOCCOCCN(C)S(=O)(=O)c1ccc(cc1)-c1cnc(N)c(n1)C(=O)N2`: the GI50 was 0.578 µM in assay [1]; 0.0566 µM in assay [2]; 1.59 µM in [3]; 3.39 µM in assay [4]; 1.88 µM in [5]; 1.94 µM in assay [6]. The GI50 in assay [7] was 3.35 µM; in assay [8] it was 0.218 µM; in assay [9], 2.06 µM; in [10], 1.21 µM. The concentration for total growth inhibition (TGI) in [1] came to 3.14 µM; in [2] it was 17.9 µM; in assay [3], 9.79 µM; in assay [4], 8.57 µM; in assay [5] it was 4.46 µM; in assay [6], 8.09 µM. Further, the TGI in assay [7] turned out to be 13.3 µM; in [8] it was 17.6 µM; in [9], 20.8 µM; in assay [10] it was 2.91 µM.

With `COc1cc2c(cc1Nc1nc(N3CCc4ccccc43)c3cc[nH]c3n1)N(C(=O)CN(C)C)CC2`, the GI50 in [1] is 1.18 µM; in assay [2] it was 0.48 µM; in assay [3] it was 2.08 µM; in [4] it was 1.22 µM; in [5], 1.67 µM; in assay [6], 2.24 µM. In addition, the GI50 was 4.79 µM in assay [7], 4.88 µM in [8], 1.67 µM in [9] and 5.26 µM in [10]. Further, the TGI in assay [1] is 6.82 µM; in [2], 2.09 µM; in assay [3] it was 4.98 µM; in assay [4], 5.63 µM; in [5], 3.84 µM; in assay [6] it was 6.43 µM. The total growth inhibition concentration (TGI) amounted to 11.8 µM in [7], 9.97 µM in assay [8], 3.37 µM in assay [9] and 11.6 µM in assay [10].

Turning to `CCN(CC)Cc1cc(Nc2nc(NC3CCC(N(C)C)CC3)c3ccccc3n2)ccc1OC` (centres undefined), the GI50 in [1] was 3.87 µM; in [2], 3.83 µM; in [3], 11.6 µM; in assay [4] it was 5 µM; in assay [5], 3.08 µM; in [6] it was 6.97 µM. Moreover, the GI50 in assay [7] was 2.33 µM; in assay [8], 2.17 µM; in [9], 12 µM; in assay [10], 12.2 µM. Further, the concentration for total growth inhibition (TGI) in assay [1] was 14.9 µM; in [2], 14.6 µM; in assay [3], 24.7 µM; in assay [4], 20.7 µM; in assay [5], 13.2 µM; in assay [6], 24.3 µM. Also, the TGI in assay [7] came to 7.01 µM; in assay [8], 17.5 µM; in [9], 25.4 µM; in assay [10], 27.2 µM.

Take `Cn1c([N+](=O)[O-])cnc1C=C1C(=O)c2ccccc2C1=O`: the GI50 in assay [1] was 2.27 µM; in assay [2], 3.44 µM; in [3], 4.67 µM; in [4], 6 µM; in assay [5] it was 2.18 µM; in assay [6], 8.89 µM. Besides, the GI50 is 21.2 µM in assay [7], 2.99 µM in assay [8], 7.07 µM in assay [9] and 3.83 µM in assay [10]. Further, the concentration for total growth inhibition (TGI) was determined as 6.08 µM in assay [1]; 16.2 µM in assay [2]; 14.8 µM in assay [3]; 18.7 µM in assay [4]; 6.54 µM in assay [5]; 28.5 µM in [6]. In addition, the TGI in assay [7] was found to be 77.7 µM; in assay [8], 39.6 µM; in assay [9] it was 21.8 µM; in assay [10], 16.2 µM.

For the compound `O=C1Oc2ccccc2C(=O)/C1=C1/C=C(c2ccccc2)SS1`, the concentration for total growth inhibition (TGI) in assay [1] was 45.2 µM; in [2], above 100 µM; in [3] it was above 100 µM; in assay [4], above 100 µM; in assay [5], above 100 µM; in assay [6] it was above 100 µM. In addition, the TGI in assay [7], in assay [8], in [9] and in assay [10] was above 100 µM throughout.

On to `Cc1ccc2c(-c3ccnc(Nc4ccc5c(c4)OCCO5)n3)c(-c3ccc(C(F)(F)F)cc3)nn2n1`, for which the GI50 in assay [1] is 6.81 µM; in assay [2] it was 5.66 µM; in assay [3] it was above 23.6 µM; in [4] it was 6 µM; in assay [5], 8.48 µM; in assay [6] it was 10.1 µM. Further, the GI50 in [7] is 7.01 µM; in assay [8], above 8.65 µM; in [9] it was 8.11 µM; in assay [10] it was 2.41 µM. The TGI in assay [1] was 19.4 µM; in assay [2], above 25 µM; in [3], above 25 µM; in assay [4], above 25 µM; in [5], above 25 µM; in assay [6], above 25 µM. The concentration for total growth inhibition (TGI) in assay [7], in [8], in assay [9] and in assay [10] was above 25 µM in each case.

As for `N#CC1(c2ccc(NC(=O)c3cccnc3NCc3ccncc3)cc2)CCCC1`, the GI50 was 11.9 µM in assay [1]; 10.6 µM in [2]; 14.8 µM in assay [3]; 22.5 µM in [4]; 21.1 µM in assay [5]; 15.5 µM in assay [6]. The GI50 in assay [7] was 9.38 µM; in assay [8] it was 8.08 µM; in [9] it was 23.5 µM; in assay [10], 12.6 µM. For the same compound, the TGI was 45.9 µM in [1]; 49.5 µM in assay [2]; 70 µM in assay [3]; above 91.8 µM in assay [4]; above 83.3 µM in assay [5]; above 64.3 µM in assay [6]. Further, the TGI is 27.3 µM in [7], 56.7 µM in assay [8], above 74.3 µM in assay [9] and 60.7 µM in assay [10].

Regarding `Cc1cccc(NC(=O)c2sc3nc4c(cc3c2N)C(=O)CCC4)c1`, the GI50 is 0.393 µM in assay [1]; 0.157 µM in assay [2]; 0.257 µM in assay [3]; 1.23 µM in assay [5]; 0.397 µM in assay [6]; 0.194 µM in assay [7]. Moreover, the GI50 is 0.272 µM in [8], above 100 µM in assay [9] and 13.9 µM in assay [10]. For the same compound, the total growth inhibition concentration (TGI) in assay [1] was above 100 µM; in assay [2], above 100 µM; in [3], 1.18 µM; in assay [4], above 57.7 µM; in [5], above 91.9 µM; in assay [6], above 48.1 µM. Besides, the total growth inhibition concentration (TGI) was above 47.6 µM in assay [7], above 39.4 µM in [8], above 100 µM in assay [9] and 51.2 µM in assay [10].

On to `O=c1c2ccccc2sc2c(CO)ccc(NCCN3CCCCC3)c12`, for which the TGI stood at 11 µM in assay [1]; 11.4 µM in assay [2]; 7.71 µM in assay [3]; 20 µM in [4]; 15.5 µM in assay [5]; 15.1 µM in [6]. The concentration for total growth inhibition (TGI) in [7] worked out at 17.4 µM; in assay [8], 19.5 µM; in [9], 12.1 µM; in assay [10] it was 4.98 µM.

`CC1(C)N=C(N)N=C(N)N1c1ccc(CCC(=O)Nc2ccc(S(=O)(=O)F)cc2)cc1`: the GI50 was 0.854 µM in assay [1]; 1.8 µM in assay [2]; 8.03 µM in assay [3]; 0.599 µM in [4]; 5.08 µM in [5]; 0.0593 µM in assay [6]. For the same compound, the GI50 in [7] is 4.49 µM; in assay [8], 2.42 µM; in [9], 1.72 µM; in [10], 34.1 µM. Further, the concentration for total growth inhibition (TGI) in assay [1] is above 100 µM; in [2], above 100 µM; in assay [3], above 100 µM; in [4], above 100 µM; in [5] it was above 100 µM; in assay [6], above 72.1 µM. Moreover, the total growth inhibition concentration (TGI) in assay [7], in assay [8], in assay [9] and in assay [10] was above 100 µM throughout.

As to `O=C1c2cccc(Oc3ccccc3)c2C(=O)c2cccc(Oc3ccccc3)c21`, the GI50 in assay [1], in assay [2], in assay [3], in assay [4], in assay [5] and in [6] was above 100 µM each time. The GI50 in [7] was 22.2 µM; in assay [8], 9.13 µM; in [9] it was above 100 µM; in assay [10], above 100 µM. For the same compound, the TGI in assay [1], in [2], in assay [3], in assay [4], in assay [5] and in assay [6] was above 100 µM throughout. Further, the TGI was above 100 µM in assay [7], 42.7 µM in [8], above 100 µM in assay [9] and above 100 µM in assay [10].

Take `COc1ccc2c(c1)C(=O)c1c-2c(Nc2ccccc2OC)nc2ccccc12`: the GI50 in assay [1], in assay [2], in [3], in assay [4], in [5] and in assay [6] was above 100 µM in each case. For the same compound, the GI50 in assay [7], in [8], in [9] and in assay [10] was above 100 µM throughout. The total growth inhibition concentration (TGI) in assay [1], in assay [2], in assay [3], in [4], in [5] and in assay [6] was above 100 µM throughout. Besides, the TGI in assay [7], in [8], in assay [9] and in assay [10] was above 100 µM each time.

Consider `CNC(=O)c1ncccc1Nc1nc(Nc2cc3c(cc2OC)CCCN3C(=O)CN(C)C)nc2[nH]ccc12`, for which the GI50 is 0.0921 µM in [1]; 0.073 µM in assay [2]; 0.986 µM in assay [3]; 0.325 µM in assay [4]; 1.25 µM in assay [5]; 1.5 µM in assay [6]. The GI50 in assay [7] was 1.82 µM; in assay [8] it was 3.03 µM; in assay [9] it was 2.22 µM; in assay [10] it was 2.71 µM. The TGI came out at 0.803 µM in assay [1]; 2.73 µM in [2]; 3.39 µM in assay [3]; 4.18 µM in [4]; 5.1 µM in [5]; 8.03 µM in [6]. Further, the TGI in [7] was 5.94 µM; in assay [8], 6.43 µM; in [9], 6.7 µM; in assay [10], 6.45 µM.

As to `CCN(CC)CCCNc1ccc(C)c2sc3ccccc3c(=O)c12`, the GI50 in [1] is 1.71 µM; in assay [2], 0.277 µM; in assay [3], 3.42 µM; in assay [4], 1.26 µM; in assay [5], 1.41 µM; in assay [6], 0.758 µM. Further, the GI50 in assay [7] is 0.808 µM; in assay [8], 5.2 µM; in assay [9], 1.37 µM; in [10] it was 0.514 µM. Further, the TGI amounted to 3.63 µM in [1]; 1.05 µM in assay [2]; 16.2 µM in assay [3]; 2.76 µM in assay [4]; 3.26 µM in assay [5]; 2.57 µM in assay [6]. Besides, the TGI in assay [7] was found to be 2.22 µM; in assay [8], 26.1 µM; in assay [9], 2.76 µM; in assay [10], 2.07 µM.

Source of the values: PubChem BioAssay (NCI).
